Data published in ChEMBL document CHEMBL3431459, “Roche carnitine palmitoyltransferase modulator screening data (supplementary data associated with the publication CHEMBL2216752)”.
Values after ≈ are worked out from the molar mass of the structure shown.

How the values were obtained:
[1] = molecular target: T1, Carnitine O-palmitoyltransferase 1, liver isoform (Homo sapiens, UniProt P50416); test: (§1) SUPPLEMENTARY: Inhibition of Carnitine palmitoyltransferase 1, liver isoform
T1 sequence (P50416 whole entry): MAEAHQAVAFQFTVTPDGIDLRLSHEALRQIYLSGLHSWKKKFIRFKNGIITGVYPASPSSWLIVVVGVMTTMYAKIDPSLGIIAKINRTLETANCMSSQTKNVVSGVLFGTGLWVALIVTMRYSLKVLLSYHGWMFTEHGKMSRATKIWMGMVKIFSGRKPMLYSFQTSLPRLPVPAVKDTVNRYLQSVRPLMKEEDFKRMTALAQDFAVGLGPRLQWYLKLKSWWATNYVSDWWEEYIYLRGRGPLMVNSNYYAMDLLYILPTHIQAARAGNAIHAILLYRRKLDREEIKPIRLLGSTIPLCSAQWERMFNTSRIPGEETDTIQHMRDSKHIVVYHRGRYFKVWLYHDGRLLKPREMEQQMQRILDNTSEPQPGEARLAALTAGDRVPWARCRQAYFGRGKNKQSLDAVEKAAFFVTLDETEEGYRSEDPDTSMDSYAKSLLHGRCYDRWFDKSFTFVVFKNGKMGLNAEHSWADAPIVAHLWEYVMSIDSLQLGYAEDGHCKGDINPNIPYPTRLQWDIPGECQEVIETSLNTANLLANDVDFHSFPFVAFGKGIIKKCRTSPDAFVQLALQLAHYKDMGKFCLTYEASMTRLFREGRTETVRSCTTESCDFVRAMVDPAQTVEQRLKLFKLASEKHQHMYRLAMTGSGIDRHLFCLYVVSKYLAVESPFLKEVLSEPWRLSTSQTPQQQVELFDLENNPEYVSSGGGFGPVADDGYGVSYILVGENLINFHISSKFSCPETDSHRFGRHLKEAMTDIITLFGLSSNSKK

[2] = molecular target: T2, Carnitine O-palmitoyltransferase 1, liver isoform (Rattus norvegicus, UniProt P32198); test: as §1
T2 sequence (P32198 whole entry): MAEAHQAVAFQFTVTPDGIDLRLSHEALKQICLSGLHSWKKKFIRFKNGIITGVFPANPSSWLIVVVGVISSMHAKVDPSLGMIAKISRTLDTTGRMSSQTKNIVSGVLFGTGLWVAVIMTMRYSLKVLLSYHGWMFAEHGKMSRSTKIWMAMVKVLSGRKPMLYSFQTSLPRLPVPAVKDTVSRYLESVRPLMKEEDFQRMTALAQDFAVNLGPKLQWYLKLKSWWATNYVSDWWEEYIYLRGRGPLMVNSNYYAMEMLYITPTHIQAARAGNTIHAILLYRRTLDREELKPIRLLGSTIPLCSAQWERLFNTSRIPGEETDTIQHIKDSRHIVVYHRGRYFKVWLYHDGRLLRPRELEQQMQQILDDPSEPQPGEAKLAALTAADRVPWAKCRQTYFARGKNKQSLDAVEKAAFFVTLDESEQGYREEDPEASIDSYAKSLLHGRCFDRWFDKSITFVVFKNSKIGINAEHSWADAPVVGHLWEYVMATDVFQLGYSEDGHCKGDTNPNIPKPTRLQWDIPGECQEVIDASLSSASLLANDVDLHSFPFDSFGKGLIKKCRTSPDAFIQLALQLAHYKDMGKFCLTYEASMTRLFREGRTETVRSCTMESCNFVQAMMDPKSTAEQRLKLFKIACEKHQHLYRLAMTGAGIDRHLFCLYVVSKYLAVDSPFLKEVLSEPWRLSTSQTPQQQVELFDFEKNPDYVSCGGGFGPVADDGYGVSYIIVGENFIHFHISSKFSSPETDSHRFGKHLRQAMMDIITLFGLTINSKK

[3] = SUPPLEMENTARY: Lipophilicity (log D) Determination by high-throughput shake-flask; format: physicochemical; conditions: octanol/water
[4] = molecular target: T3, Carnitine O-palmitoyltransferase 2, mitochondrial (Homo sapiens, UniProt P23786); test: (§2) SUPPLEMENTARY: Inhibition of Carnitine palmitoyltransferase 2
T3 sequence (P23786 whole entry): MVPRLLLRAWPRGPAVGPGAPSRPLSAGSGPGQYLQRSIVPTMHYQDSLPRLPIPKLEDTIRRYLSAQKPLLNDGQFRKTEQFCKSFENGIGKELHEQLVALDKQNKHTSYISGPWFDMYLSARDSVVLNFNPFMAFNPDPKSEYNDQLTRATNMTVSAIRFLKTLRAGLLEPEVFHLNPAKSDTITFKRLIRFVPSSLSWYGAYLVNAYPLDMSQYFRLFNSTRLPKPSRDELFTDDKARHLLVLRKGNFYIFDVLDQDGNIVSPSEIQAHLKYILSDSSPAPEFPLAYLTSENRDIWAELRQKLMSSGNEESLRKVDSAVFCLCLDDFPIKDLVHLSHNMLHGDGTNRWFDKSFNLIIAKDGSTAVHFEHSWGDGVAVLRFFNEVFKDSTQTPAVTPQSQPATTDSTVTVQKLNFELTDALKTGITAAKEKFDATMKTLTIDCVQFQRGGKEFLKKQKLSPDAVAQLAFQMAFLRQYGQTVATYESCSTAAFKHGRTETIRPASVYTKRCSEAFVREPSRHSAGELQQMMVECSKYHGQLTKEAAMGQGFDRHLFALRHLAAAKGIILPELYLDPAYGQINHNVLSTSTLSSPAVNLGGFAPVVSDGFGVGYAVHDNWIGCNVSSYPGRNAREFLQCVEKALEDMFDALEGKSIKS

[5] = molecular target: T4, Carnitine O-palmitoyltransferase 2, mitochondrial (Rattus norvegicus, UniProt P18886); test: as §2
T4 sequence (P18886 whole entry): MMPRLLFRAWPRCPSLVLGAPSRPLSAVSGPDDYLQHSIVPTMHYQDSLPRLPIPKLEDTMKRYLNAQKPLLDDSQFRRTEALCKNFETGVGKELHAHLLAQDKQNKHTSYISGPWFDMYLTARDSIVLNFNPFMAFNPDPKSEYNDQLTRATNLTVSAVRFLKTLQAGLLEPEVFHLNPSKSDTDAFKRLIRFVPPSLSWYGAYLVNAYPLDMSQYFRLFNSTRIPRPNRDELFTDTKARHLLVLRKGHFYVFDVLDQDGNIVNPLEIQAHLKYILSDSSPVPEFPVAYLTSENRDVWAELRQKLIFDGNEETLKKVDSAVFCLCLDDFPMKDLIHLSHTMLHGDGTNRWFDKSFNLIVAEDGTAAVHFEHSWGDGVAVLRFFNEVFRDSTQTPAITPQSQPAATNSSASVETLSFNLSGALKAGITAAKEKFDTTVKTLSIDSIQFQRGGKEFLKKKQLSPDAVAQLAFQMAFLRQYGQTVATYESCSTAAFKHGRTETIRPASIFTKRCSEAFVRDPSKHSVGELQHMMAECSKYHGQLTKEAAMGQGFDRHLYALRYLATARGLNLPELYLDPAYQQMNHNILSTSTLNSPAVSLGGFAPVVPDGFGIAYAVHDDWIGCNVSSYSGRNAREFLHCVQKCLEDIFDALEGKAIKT

[6] = SUPPLEMENTARY: PAMPA permeability assay; format: physicochemical; conditions: read-out: Permeability
[7] = molecular target: T5, Carnitine O-palmitoyltransferase 1, muscle isoform (Homo sapiens, UniProt Q92523); test: SUPPLEMENTARY: Inhibition of Carnitine palmitoyltransferase 1, muscle isoform; set-up: species or system Muscle tissue
T5 sequence (Q92523 whole entry): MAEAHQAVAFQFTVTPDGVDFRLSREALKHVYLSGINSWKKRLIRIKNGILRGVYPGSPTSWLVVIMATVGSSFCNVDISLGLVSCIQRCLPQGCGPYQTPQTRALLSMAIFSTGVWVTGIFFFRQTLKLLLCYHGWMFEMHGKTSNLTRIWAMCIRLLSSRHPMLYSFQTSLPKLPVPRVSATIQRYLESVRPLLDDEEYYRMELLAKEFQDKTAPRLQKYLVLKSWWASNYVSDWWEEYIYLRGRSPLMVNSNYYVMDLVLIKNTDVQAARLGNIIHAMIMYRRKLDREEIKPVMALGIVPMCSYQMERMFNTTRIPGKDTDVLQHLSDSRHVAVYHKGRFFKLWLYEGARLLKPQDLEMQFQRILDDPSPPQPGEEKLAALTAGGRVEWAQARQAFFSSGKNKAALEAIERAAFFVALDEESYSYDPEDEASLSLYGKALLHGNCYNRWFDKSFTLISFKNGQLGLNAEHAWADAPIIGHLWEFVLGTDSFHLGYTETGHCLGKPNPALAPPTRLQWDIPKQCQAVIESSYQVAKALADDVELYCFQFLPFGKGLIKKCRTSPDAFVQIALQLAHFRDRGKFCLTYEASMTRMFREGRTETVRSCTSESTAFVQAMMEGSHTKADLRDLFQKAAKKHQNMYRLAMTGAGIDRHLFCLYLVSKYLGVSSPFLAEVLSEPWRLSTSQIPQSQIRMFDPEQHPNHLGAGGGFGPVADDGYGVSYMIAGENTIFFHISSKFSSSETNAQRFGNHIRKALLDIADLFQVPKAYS

[8] = SUPPLEMENTARY: Lyophilisation Solubility Assay (LYSA); format: physicochemical; conditions: read-out: Kinetic_solubility

Structure (SMILES) | IC50 [1] [µM] | IC50 [2] [µM] | logD [3] | IC50 [4] [µM] | IC50 [5] [µM] | Papp [6] [×10⁻⁶ cm/s] | IC50 [7] [µM] | solubility kinetic [8] [µg/mL]
COc1ccc(Cl)cc1S(=O)(=O)N1CCc2ccc(C(=O)Nc3ccc(CC(=O)O)cc3)cc21 | 0.0974 | 0.0323 | 0.33 | > 100 | > 100 | 4.09 | 2.13 | 532 (≈ 1060 µM)
COc1ccc(Cl)cc1Cc1c[nH]c2ccc(C(=O)Nc3nc(CC(=O)O)cs3)cc12 | 0.0393 | 0.0592 | 1.48 | > 100 | > 100 | 0.49 | 1.2 | 55 (≈ 121 µM)
COc1ccc(C)cc1S(=O)(=O)N1CCCc2ccc(C(=O)Nc3ccc(C(=O)O)c(F)c3)cc21 | 0.152 | 0.0909 | 0.88 | 4.43 | 8.13 | 1.62 | 5.18 | 60 (≈ 120 µM)
O=C(NCCO)c1cccc(-c2n[nH]c([C@H]3CCCCN3C(=O)COc3ccccc3)n2)c1 | 0.242 | 0.713 | 1.98 | 30.3 | 70 | 0.51 | > 100 | 138 (≈ 307 µM)
COc1ccc(Cl)cc1S(=O)(=O)N1CCSc2ccc(C(=O)Nc3ccc(CC(=O)O)cc3)cc21 | 0.12 | 0.155 | 0.61 | > 100 | > 100 | 5.1 | 0.792 | 232 (≈ 435 µM)
Cc1nn(C)c(-c2noc([C@H]3CCCCN3C(=O)COc3ccccc3)n2)c1Cl | 0.0791 | 0.252 | 3.61 | > 100 | > 100 | 1.68 | > 100 | < 1

Further compounds by falling IC50 [1], results first:

IC50 [1] [µM] | IC50 [2] [µM] | logD [3] | IC50 [4] [µM] | IC50 [5] [µM] | Papp [6] [×10⁻⁶ cm/s] | IC50 [7] [µM] | solubility kinetic [8] [µg/mL] | Structure (SMILES)
44.4 | > 10 | 3.95 | > 100 | > 100 | 2.27 | > 100 | < 1 | O=C(COc1ccccc1)N1CCC(n2c(COc3ccccc3)nc3cc(F)ccc32)CC1
0.286 | 0.865 | 1.92 | 45.3 | 66 | 3.97 | > 100 | 111 (≈ 293 µM) | Nc1ccc(-c2n[nH]c([C@H]3CCCCN3C(=O)COc3ccccc3)n2)cn1
0.229 | 0.106 | 2.01 | 0.54 | 2.01 | 8.31 | > 100 | 70 (≈ 150 µM) | O=C([C@H]1CCCCN1C(=O)COc1ccccc1)N1Cc2cc(F)c(N3CCOCC3)cc2C1
0.226 | 4.51 | -1.07 | 96.3 | > 100 | 0.07 | > 100 | 397 (≈ 972 µM) | O=C(O)c1cncc(-c2noc([C@H]3CCCCN3C(=O)COc3ccccc3)n2)c1
0.167 | 0.334 | 2.75 | 14.5 | > 100 | 6.32 | 78.1 | 17 (≈ 42.1 µM) | O=C(COc1ccccc1)N1CCCC[C@@H]1c1nc(-c2ccc3nccn3c2)no1
0.156 | 0.514 | 0.92 | > 100 | > 100 | 3.15 | 0.628 | 70 (≈ 154 µM) | O=C(O)c1ccc(C(=O)Nc2nn(Cc3ccc(OC(F)F)cc3)c3ccc(F)cc23)cc1
0.0758 | 0.169 | 2.85 | 42.1 | > 100 | 2.96 | 9.88 | 18 (≈ 49.7 µM) | NC(=O)c1ccc(C#C[C@H]2CCCCN2C(=O)COc2ccccc2)cc1
0.0537 | 0.0542 | 0.47 | > 100 | > 100 | 2.38 | 46.8 | 440 (≈ 900 µM) | COc1ccc(Cl)cc1S(=O)(=O)Nc1cc(C(=O)Nc2ccccc2)ccc1CCC(=O)O
